Reference: patent US20010032339A1, “Chaperone suppression of ataxin-1 aggregation and altered subcellular proteasome localization imply protein misfolding in SCA1” (priority 1998, published 2001)

Key:
Assay type in all cases: cell-based, human
[1] = system: GFP-ataxin-1 [82Q] nuclear aggregates in HeLa cells; assay: Effect of proteasome inhibitors on aggregation of GFP-ataxin-1 [82Q] in transfected HeLa cells; conditions: HeLa cells transfected with GFP-ataxin-1 [82Q]
From the text: Full length mutant ataxin-1 [82Q] readily aggregates in subnuclear structures when overexpressed in tissue culture cells and these aggregates alter the staining pattern of the 20S proteasome. […] The effect of proteasome inhibitors on the aggregation of GFP-ataxin-1 [82Q] in transfected HeLa cells was examined. The protease inhibitor clasto-Lactacystin β-lactone specifically prevents protein breakdown by the proteasome, without inhibiting lysosomal degradation. […] In contrast to the 71% of mock treated cells which had nuclear aggregates, 97% of the proteasome inhibitor treated cells were aggregate positive (FIGS. 7A through 7D). […] Therefore, proteasome inhibitor treatment led to an increase in both frequency and size of nuclear aggregates. This enhancement is most likely due to the increased nuclear concentration of misfolded proteins which are not being properly degraded.

[2] = system: ataxin-1 [92Q] in HeLa cells; assay: Immunoblot of steady-state levels of ataxin-1 in detergent soluble and insoluble fractions; conditions: HeLa cells expressing ataxin-1 [92Q], versus DMSO control
Protocol: The effect of β-lactone on the steady-state levels of ataxin-1 was assessed by immunoblot analysis (FIGS. 8A through 8D). HeLa cells expressing mutant ataxin-1 [92Q] were treated with either different concentrations of β-lactone or DMSO (dimethyl sulfoxide) control. Cells lysates were separated into detergent soluble and insoluble fractions and then immunoblotted with ataxin-1 antibody. […] Increasing the protein concentration per lane and extending the exposure time, a high molecular weight smear punctated by discrete bands is evident. […] Additionally, the higher molecular weight smear was never seen in the detergent soluble fraction.

[3] = system: ataxin-1 [92Q] nuclear aggregates in HeLa cells; assay: Ataxin-1 aggregate formation in HeLa cells cotransfected with ataxin-1 [92Q] and HDJ-2/HSDJ constructs
From the text: Full-length human HDJ-2/HSDJ and HDJ-2/HSDJ mutants Δ250 (deletion of aa 9-46) and Δ450 (deletion of aa9-107)^32 were subcloned in frame into the pFLAG-CMV-2vector (Kodak). The primers HDJ2-FOR (5′-[…]-3′) and HDJ2-REV (5′-[…]-3′) were used to PCR amplify the 5′ end of HDJ-2/HSDJ containing an inframe Not I site. The PCR product was cut with Notl and EcoRl and subcloned into pFLAG-CMV-2. This construct was digested with EcoRl and Xbal to insert the 3′ HDJ-2/HSDJ EcoRl/Xbal sequence. The constructs were confirmed by DNA sequence analysis.
Transient expression of ataxin-1 and HDJ-2/HSDJ in COS7 and HeLa cells was accomplished by transfection with Lipofectamine™ Reagent (Life technologies, Inc.) in 35 mm tissue culture plates containing sterile coverslips. Forty-eight hours after transfection, cells were fixed at 4° C. for 30 min in 4% formaldehyde in PEM (80 mM K-PIPES, pH 6.8, 5 mM EGTA pH 7.0, 2 mM MgCl2), quenched in 1 mg/ml NaBH4 in PEM, and permeabilized for 30 min in 0.5% Triton X-100 in PEM. The coverslips were blocked for 1 hour at room temperature (RT) in 5% non-fat dry milk (Bio-Rad) in 50 mM Tris-HCl pH 7.5, 150 mM NaCl, 0.05% Tween20 (TBS-T), then incubated for 60 min at RT with rabbit polyclonal antibodies (1:1000) recognizing ataxin-1 (11750VII)^44. […] Hsp70 was detected with mouse monoclonal anti-Hsp70 (1:500) (StressGen). Endogenous HDJ-2/HSDJ was detected with mouse monoclonal anti-HDJ-2/DNAJ (1:200) (Neomarkers). The 20S proteasome was visualized with rabbit polyclonal anti-20S proteasome^43 (1:500) and ataxin-1 colocalization was detected using mouse monoclonal anti-Xpress (1:1000) recognizing the Xpress epitope in pcDNA 3.1 (Invitrogen). […]
Duplicate slides were graded blindly in two independent trials. […] Frequency of aggregate formation was computed for two independent experiments and expressed as the mean±s.e.m. […]
The ability of HDJ-2/HSDJ to function as a molecular chaperone and moderate ataxin-1 aggregation in HeLa cells was tested. […] HDJ-2/HSDJ was overexpressed by transfection in HeLa cells and the cells analyzed for the staining pattern of ataxin-1. […]

Compound	distribution of cells containing large aggregates compared to controls [1]	percentage of cells aggregate positive ([1]; mock treated 71%) [%]	steady-state level of detergent soluble form of ataxin-1 [2]	steady-state level of detergent-insoluble form of ataxin-1 [2]	change in frequency of ataxin-1 aggregation versus vector control ([3]; HeLa cells cotransfected with ataxin-1, ANOVA F=24.5, p=0.0002)	distribution of ataxin-1 staining pattern (diffuse/micropunctate versus large aggregates) ([3]; HeLa cells cotransfected with ataxin-1, ANOVA F=36.4, p<0.001)	percentage of cells with nuclear aggregates (aggregate-positive) ([3]; HeLa cells cotransfected with ataxin-1 [92Q], vector control approximately 70%)
CC(C)[C@H](O)[C@@]12NC(=O)[C@H](C)[C@@H]1OC2=O [β-lactone, clasto-Lactacystin β-lactone]	dramatically increased	97	unchanged	marked accumulation	–	–	–
HDJ-2/HSDJ: full-length human DnaJ (Hsp40) homolog molecular chaperone, overexpressed by transfection (pFLAG-CMV-2)	–	–	–	–	significant decrease	more cells have diffuse/micropunctate nuclear staining pattern, than large nuclear aggregates	less than 40%
